Measurements taken from patent US20100261711A1, “SELECTIVE ANTICONVULSANT AGENTS AND THEIR USES” (WiSys Technology Foundation, priority 2009, published 2010).
Marks after values point to notes of the source that are not given here.

Tests used:
α1β3γ2 GABAA receptors = biological target: T1, α1β3γ2 GABAA receptors (Homo sapiens, UniProt P14867+P18507); experiment: Voltage clamp recordings from Xenopus oocytes; format: cell-based
T1 construct: expressed in transfected cells; host or cells: Xenopus laevis oocytes injected with cRNA
Description: The GABAA subunit selectivity of several compounds prepared as described above were determined using voltage clamp recordings from Xenopus oocytes that expressed that αxβ3γ2 GABAA receptor.
In Vitro Expression of GABAA Receptor Subunits The methods used for isolating, culturing, injecting and defolliculating of the oocytes were identical with those described by E. Sigel. […] European journal of pharmacology 1995, 289, (1), 87-95; Sigel, E.;& Baur, R., Allosteric modulation by benzodiazepine receptor ligands of the GABAA receptor channel expressed in Xenopus oocytes. J. Neurosci. 1988, 8, (1), 289-95; Sigel, E.; & Minier, F., The Xenopus oocyte: System for the study of functional expression and modulation of proteins. Molecular Nutrition & Food Research 2005, 49, (3), 228-234. Mature female Xenopus laevis (Nasco, Wis.) were anaesthetized in a bath of ice-cold 0.17% Tricain (Ethyl-m-aminobenzoate, Sigma, Mo.) before decapitation and removal of the frog ovary. Stage 5 to 6 oocytes with the follicle cell layer around them were singled out of the ovary using a platinum wire loop. […]
Voltage Clamp Recordings From Xenopus Oocytes. […] Data were digitized, recorded and measured using a Digidata 1322A data acquisition system (Axon Instruments, Union City, Calif.). […]

kindled motor seizure = experiment: Hippocampus kindling screen; format: in vivo; settings: Rats IP
From the text: The hippocampus kindling screen is a useful adjunct to the traditional MES and scMet tests for identification of a substance potential utility for treating complex partial seizures. […] No toxic effects were observed as indicated by the lack of motor impairment on the rats tested.

[1] = biological target: T2, GABAA/α1 (α1β3γ2 GABAA receptors) (Homo sapiens, UniProt P14867+P18507); experiment: Competitive binding assay, [3H]flunitrazepam; settings: Binding Affinity at GABAA/α1, αxβ3γ2, [3H]flunitrazepam competition
T2 construct: expressed in transfected cells
In short: (§1)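 Bound ligand was collected on 0.3% polyethyleneimine-pretreated GF/C filters with three ice-cold washes and quantified by liquid scintillation counting; membrane protein was determined against a BSA standard.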

[2] = biological target: T3, GABAA/α2 (α2β3γ2 GABAA receptors) (Homo sapiens, UniProt P18507+P47869); experiment: Competitive binding assay, [3H]flunitrazepam; settings: Binding Affinity at GABAA/α2, αxβ3γ2, [3H]flunitrazepam competition
T3 construct: expressed in transfected cells
In short: as §1

[3] = biological target: T4, GABAA/α5 (α5β3γ2 GABAA receptors) (Homo sapiens, UniProt P18507+P31644); experiment: Competitive binding assay, [3H]flunitrazepam; settings: Binding Affinity at GABAA/α5, αxβ3γ2, [3H]flunitrazepam competition
T4 construct: expressed in transfected cells
In short: as §1

| SMILES | efficacy at α1 (percent of control current) (α1β3γ2 GABAA receptors) | Tox, animals toxic/tested (kindled motor seizure; 50 mg/kg after 1.0 h) | Afterdischarge Duration, Drug (Low-High) (kindled motor seizure; 50 mg/kg after 1.0 h, pre-drug 47-61) | Ki [1] | Ki [2] | Ki [3] | Tox, animals toxic/tested (kindled motor seizure; 30 mg/kg after 1.0 h) | Afterdischarge Duration, Drug (Low-High) (kindled motor seizure; 30 mg/kg after 1.0 h, pre-drug 30-41) |
| --- | --- | --- | --- | --- | --- | --- | --- | --- |
| C#Cc1ccc2c(c1)C(c1ccccn1)=NCc1c(C(=O)OCC)ncn1-2 [Hz166 (106), 8-Acetylenyl-6-pyridin-2-yl-4H-benzo[f]imidazo[1,5-a][1,4]diazepine-3-carboxylic acid ethyl ester] | 255% | 0/8^a | 59- s | – | – | – | – | – |
| C#Cc1ccc2c(c1)C(c1ccccc1F)=NCc1c(C(=O)OCC)ncn1-2 [JY-XHe-053 (15), Ethyl-8-acetyleno-6-(2′-fluorophenyl)-4H-benzo[f]imidazo[1,5-a][1,4]diazepine-3-carboxylate] | 289% | – | – | 22 nM | 12.3 nM | 0.671 nM | 0/2^b | 38- s |
| C#Cc1ccc2c(c1)C(c1ccccc1)=N[C@H](C)c1nnc(C)n1-2 [SH-TR-CH3 (146), (4R)-8-Ethynyl-1,4-dimethyl-6-phenyl-4H-benzo[f][1,2,4]triazolo[4,3-a][1,4]diazepine] | – | – | – | 7370 nM | 1530 nM | 1950 nM | – | – |
